{"source": "patent US20260355251A1", "about": "“COMPOSITION FOR PROMOTING HAIR GROWTH” (Idea Therapeutics SL, priority 2023, published 2026)", "key": {"androgen receptors": {"test_system": "androgen receptors", "settings": "hair follicles; cited from earlier work"}, "AGA Model": {"test_system": "AGA Model", "assay": "Macroscopic blind assessment of hair growth in DHT-induced AGA model mice (Example 5)", "format": "in vivo, C57BL6 mice (males)", "settings": "male mice, day 21, intradermal on day 0 and day 3, ATP 100 μM", "protocol": "The compositions for promoting hair growth of the invention were tested in vivo in mice, according to the following procedure.\nA total of 45 6-week-old C57BL6 mice (males) from Charles River Laboratories were used.\nThe animals were acclimatized for 6 days, and they were administered 1 mg of DHT (5α-androstan-17β-ol-3-one, Sigma) in 100 μL of 50% DMSO (Merck)/50% Isotonic Saline Serum (Fresenius Kabi) subcutaneously for […] (5 days a week), resulting 19 administrations, instead of 20, because the dose was omitted on day 21, when the final assessment of hair growth took place. The administration of DHT began at day-4 of the testing.\nThe concentration of ATP in Groups 3, 4, 5 and 6 was 100 μM.\nAfter 4 days of administration of the DHT solution (day 0), the target area was depilated using an electric shaver in the area delimited by a template. Subsequently, depilatory cream was applied with the aim of uniformizing the beginning of the anagen phase in all mice. This procedure was performed using inhalation sedation with 2% Isoflurane, maintaining the body temperature of the animals with an electric blanket and an infrared lamp. (FIG. 1). […]"}, "hair follicle cultures": {"test_system": "hair follicle cultures", "settings": "between ATP and adenosine; cited from earlier work"}}}
{"molecule": "C[C@]12CCC(=O)C[C@@H]1CC[C@@H]1[C@@H]2CC[C@]2(C)[C@@H](O)CC[C@@H]12", "note": "[DHT, 5α-androstan-17β-ol-3-one]", "values": [{"measurement": "affinity towards androgen receptors", "setting": "androgen receptors", "result": "higher affinity towards androgen receptors in the hair follicles"}]}
{"molecule": "Nc1ncnc2c1ncn2[C@@H]1O[C@H](COP(=O)(O)OP(=O)(O)OP(=O)(O)O)[C@@H](O)[C@H]1O", "note": "[ATP non-encapsulated, adenosine triphosphate]", "values": [{"measurement": "hair growth level: Intense (% of mice)", "setting": "AGA Model; ADSCs high 4 × 10^6, low 1 × 10^6", "result": 80, "unit": "%"}, {"measurement": "hair growth level: Moderate (% of mice)", "setting": "AGA Model; ADSCs high 4 × 10^6", "result": 20, "unit": "%"}]}
{"molecule": "Nc1ncnc2c1ncn2[C@@H]1O[C@H](CO)[C@@H](O)[C@H]1O", "note": "[adenosine]", "values": [{"measurement": "synergistic action on hair growth of hair follicle cultures", "setting": "hair follicle cultures", "result": "synergistic action"}]}
{"molecule": "Nc1ncnc2c1ncn2[C@@H]1O[C@H](COP(=O)(O)OP(=O)(O)OP(=O)(O)O)[C@@H](O)[C@H]1O", "note": "[ATP, adenosine triphosphate]", "values": [{"measurement": "synergistic action on hair growth of hair follicle cultures", "setting": "hair follicle cultures", "result": "synergistic action"}]}
